ChEMBL document CHEMBL4270514, “Design, synthesis and biological evaluation of novel xanthine oxidase inhibitors bearing a 2-arylbenzo[b]furan scaffold” (Eur J Med Chem, 2018)
Activity calls are given as the source filed them. The rule behind the calls is not given here.

How the values were obtained:
RAW264.7 [1] = test: Inhibition of LPS-induced ROS generation in mouse RAW264.7 cells at 1 to 10 uM after 24 hrs by H2DCFH staining-based fluorescence assay; assay type: functional, cell-based
[2] = target: T1, Xanthine dehydrogenase/oxidase (Bos taurus, UniProt P80457); test: Inhibition of bovine xanthine oxidase using xanthine as substrate preincubated for 3 mins followed by substrate addition and measured for every 15 secs for 7 mins by spectrophotometric analysis
[3] = Cytotoxicity against mouse RAW264.7 cells assessed as effect on cell viability at 1 to 10 uM after 24 hrs by MTT assay relative to control; assay type: cell-based; settings: read-out: Activity
[4] = Antioxidant activity assessed as DPPH radical scavenging activity after 30 mins by spectrophotometric analysis; assay type: functional
[5] = target: T1, Xanthine dehydrogenase/oxidase; test: Competitive inhibition of bovine xanthine oxidase using xanthine as substrate preincubated for 3 mins followed by substrate addition by Lineweaver-Burk plot analysis
Mus musculus [6] = test: Hypouricemic effect in iv dosed ICR mouse model of potassium oxonate-induced acute hyperuricemia assessed as reduction in serum uric acids level measured after 1 hr post dose; assay type: functional, organism-based
RAW264.7 [7] = test: Inhibition of LPS-induced ROS generation in mouse RAW264.7 cells after 24 hrs by H2DCFH staining-based fluorescence assay; assay type: functional, cell-based
[8] = target: T1, Xanthine dehydrogenase/oxidase; test: Uncompetitive inhibition of bovine xanthine oxidase using xanthine as substrate preincubated for 3 mins followed by substrate addition by Lineweaver-Burk plot analysis
Mus musculus [9] = test: Hypouricemic effect in ICR mouse model of potassium oxonate-induced acute hyperuricemia assessed as reduction in serum uric acid levels at 10 mg/kg, iv measured at 1 hr post dose; assay type: functional, organism-based
RAW264.7 [10] = test: Inhibition of LPS-induced ROS generation in mouse RAW264.7 cells at 10 uM after 24 hrs by H2DCFH staining-based fluorescence assay; assay type: functional, cell-based

T1 sequence (P80457 whole entry): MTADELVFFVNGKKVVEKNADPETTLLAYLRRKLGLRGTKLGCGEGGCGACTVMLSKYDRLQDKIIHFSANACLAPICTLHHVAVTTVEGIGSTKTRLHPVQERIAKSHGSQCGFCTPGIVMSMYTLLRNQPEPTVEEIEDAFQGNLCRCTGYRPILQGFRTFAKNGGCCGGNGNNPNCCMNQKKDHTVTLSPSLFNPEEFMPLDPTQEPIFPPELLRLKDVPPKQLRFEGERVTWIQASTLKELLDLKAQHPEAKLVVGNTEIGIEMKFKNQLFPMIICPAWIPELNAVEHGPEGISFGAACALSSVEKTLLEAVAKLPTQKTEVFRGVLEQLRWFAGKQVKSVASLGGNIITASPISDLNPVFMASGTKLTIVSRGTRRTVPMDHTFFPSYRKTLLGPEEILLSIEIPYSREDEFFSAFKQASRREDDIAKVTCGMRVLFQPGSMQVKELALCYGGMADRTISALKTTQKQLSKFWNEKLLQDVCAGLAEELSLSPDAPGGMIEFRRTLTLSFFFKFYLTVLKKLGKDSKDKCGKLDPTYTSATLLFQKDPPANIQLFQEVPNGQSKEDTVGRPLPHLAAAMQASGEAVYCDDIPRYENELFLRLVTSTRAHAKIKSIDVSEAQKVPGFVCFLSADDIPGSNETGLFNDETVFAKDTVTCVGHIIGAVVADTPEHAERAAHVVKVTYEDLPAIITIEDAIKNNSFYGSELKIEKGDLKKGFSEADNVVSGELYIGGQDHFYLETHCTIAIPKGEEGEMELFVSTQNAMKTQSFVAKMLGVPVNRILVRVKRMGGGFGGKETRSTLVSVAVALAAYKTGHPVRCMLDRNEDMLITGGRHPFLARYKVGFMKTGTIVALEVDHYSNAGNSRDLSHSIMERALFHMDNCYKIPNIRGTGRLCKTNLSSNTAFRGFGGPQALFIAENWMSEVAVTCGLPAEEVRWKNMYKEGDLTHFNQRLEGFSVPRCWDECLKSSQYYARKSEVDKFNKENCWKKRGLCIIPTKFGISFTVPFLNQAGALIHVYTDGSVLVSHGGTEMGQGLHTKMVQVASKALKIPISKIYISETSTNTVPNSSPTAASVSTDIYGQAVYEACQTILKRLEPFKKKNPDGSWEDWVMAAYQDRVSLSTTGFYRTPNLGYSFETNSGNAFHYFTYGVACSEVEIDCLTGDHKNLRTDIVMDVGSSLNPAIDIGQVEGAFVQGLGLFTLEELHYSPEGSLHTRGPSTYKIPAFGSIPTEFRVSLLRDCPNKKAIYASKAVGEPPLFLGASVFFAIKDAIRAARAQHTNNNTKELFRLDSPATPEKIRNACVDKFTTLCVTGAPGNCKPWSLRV

SMILES | IC50 [2] | IC50 [4] | Ki [5] | Ki [8] | inhibition (RAW264.7 [1]) | viability at 24 h, up to 10 µM [3] | Activity (Mus musculus [6]) | inhibition (RAW264.7 [7]) | Activity (Mus musculus [9]) | viability at 24 h, 10 µM [3] | inhibition (RAW264.7 [10])
O=C(CCc1ccc(O)c2oc(-c3ccc(O)c(O)c3)cc12)Nc1ccc(O)cc1 | 38.6 µM | 6.62 to 21.1 µM | – | – | inactive | > 85% | – | – | – | – | –
O=C(/C=C/c1ccc(O)c2oc(-c3ccc(O)c(O)c3)cc12)O[C@H](Cc1ccc(O)c(O)c1)C(=O)O | – | – | – | – | – | > 85% | Dose-dependent effect | – | – | – | –
O=C(CCc1ccc(O)c2oc(-c3ccc(O)c(O)c3)cc12)N1CCOCC1 | > 100 µM | 6.62 to 21.1 µM | – | – | inactive | > 85% | – | – | – | – | –
O=C(/C=C/c1ccc(O)c2oc(-c3ccc(O)c(O)c3)cc12)Nc1ccc(F)cc1 | 83.8 µM | 6.62 to 21.1 µM | – | – | – | > 85% | – | Dose-dependent effect | – | – | –
O=C(/C=C/c1ccc(O)c2oc(-c3ccc(O)c(O)c3)cc12)Nc1ccc(Br)cc1 | > 100 µM | 6.62 to 21.1 µM | – | – | – | > 85% | – | Dose-dependent effect | – | – | –
O=C(/C=C/c1ccc(O)c2oc(-c3ccc(O)c(O)c3)cc12)N1CCCCC1 | 21.2 µM | 6.62 to 21.1 µM | – | – | – | > 85% | – | Dose-dependent effect | – | – | –
CC(C)(C)NC(=O)/C=C/c1ccc(O)c2oc(-c3ccc(O)c(O)c3)cc12 | 45.2 µM | 6.62 to 21.1 µM | – | – | – | > 85% | – | Dose-dependent effect | – | – | –
Oc1ncnc2[nH]ncc12 | – | – | – | – | – | – | – | – | Active | – | –
Cc1ccc(NC(=O)/C=C/c2ccc(O)c3oc(-c4ccc(O)c(O)c4)cc23)cc1 | 51.3 µM | 6.62 to 21.1 µM | – | – | – | > 85% | – | Dose-dependent effect | – | – | –
O=C(/C=C/c1ccc(O)c2oc(-c3ccc(O)c(O)c3)cc12)Nc1ccc(Cl)cc1 | > 100 µM | 6.62 to 21.1 µM | – | – | – | > 85% | – | Dose-dependent effect | – | – | –
O=C(/C=C/c1ccc(O)c2oc(-c3ccc(O)c(O)c3)cc12)Nc1ccccc1 | 17.8 µM | 6.62 to 21.1 µM | – | – | inactive | > 85% | – | – | – | – | –
C=CCNC(=O)CCc1ccc(O)c2oc(-c3ccc(O)c(O)c3)cc12 | 46.8 µM | 6.62 to 21.1 µM | – | – | – | > 85% | – | – | – | – | –
CC(C)OC(=O)/C=C/c1ccc(O)c2oc(-c3ccc(O)c(O)c3)cc12 | 24.2 µM | 6.62 to 21.1 µM | – | – | inactive | > 85% | – | – | – | – | –
O=C(O)/C=C/c1ccc(O)c2oc(-c3ccc(O)c(O)c3)cc12 [TOURNEFOLIC ACID A] | 16.1 µM | – | – | – | – | > 85% | – | Dose-dependent effect | – | – | –
COc1ccc(NC(=O)/C=C/c2ccc(O)c3oc(-c4ccc(O)c(O)c4)cc23)cc1 | 42.2 µM | 6.62 to 21.1 µM | – | – | – | > 85% | – | Dose-dependent effect | – | – | –
O=C(/C=C/c1ccc(O)c2oc(-c3ccc(O)c(O)c3)cc12)N1CCOCC1 | > 100 µM | 6.62 to 21.1 µM | – | – | inactive | > 85% | – | – | – | – | –
C=CCNC(=O)/C=C/c1ccc(O)c2oc(-c3ccc(O)c(O)c3)cc12 | 18.2 µM | 6.62 to 21.1 µM | – | – | inactive | > 85% | – | – | – | – | –
CCCOC(=O)/C=C/c1ccc(O)c2oc(-c3ccc(O)c(O)c3)cc12 | 19.3 µM | 6.62 to 21.1 µM | – | – | – | > 85% | – | – | – | – | Active

More lines, in order of falling IC50 [2], values ahead:

IC50 [2] | IC50 [4] | Ki [5] | Ki [8] | SMILES | inhibition (RAW264.7 [1]) | viability at 24 h, up to 10 µM [3] | Activity (Mus musculus [6]) | inhibition (RAW264.7 [7]) | Activity (Mus musculus [9]) | viability at 24 h, 10 µM [3] | inhibition (RAW264.7 [10])
15.6 µM | 6.62 to 21.1 µM | – | – | O=C(/C=C/c1ccc(O)c2oc(-c3ccc(O)c(O)c3)cc12)NCc1ccccc1 | – | > 85% | – | – | – | – | Active
15.5 µM | 6.62 to 21.1 µM | – | – | CCOC(=O)/C=C/c1ccc(O)c2oc(-c3ccc(O)c(O)c3)cc12 | – | > 85% | – | Dose-dependent effect | – | – | –
13.9 µM | 6.62 to 21.1 µM | – | – | CC(C)NC(=O)/C=C/c1ccc(O)c2oc(-c3ccc(O)c(O)c3)cc12 | – | > 85% | – | Dose-dependent effect | – | – | –
13.5 µM | 6.62 to 21.1 µM | – | – | CCNC(=O)/C=C/c1ccc(O)c2oc(-c3ccc(O)c(O)c3)cc12 | inactive | – | – | – | – | > 85% | –
11.5 µM | 6.62 to 21.1 µM | – | – | CNC(=O)CCc1ccc(O)c2oc(-c3ccc(O)c(O)c3)cc12 | inactive | > 85% | – | – | – | – | –
11 µM | 6.62 to 21.1 µM | – | – | O=C(/C=C/c1ccc(O)c2oc(-c3ccc(O)c(O)c3)cc12)Nc1ccc(O)cc1 | inactive | – | – | – | – | > 85% | –
9.76 µM | 6.62 to 21.1 µM | – | – | O=C(O)CCc1ccc(O)c2oc(-c3ccc(O)c(O)c3)cc12 | inactive | > 85% | – | – | – | – | –
6.55 µM | 6.62 to 21.1 µM | – | – | COC(=O)/C=C/c1ccc(O)c2oc(-c3ccc(O)c(O)c3)cc12 | – | > 85% | – | Dose-dependent effect | – | – | –
4.45 µM | 6.62 to 21.1 µM | 3.52 µM | 13.1 µM | CNC(=O)/C=C/c1ccc(O)c2oc(-c3ccc(O)c(O)c3)cc12 | – | > 85% | Dose-dependent effect | Dose-dependent effect | – | – | –
